# Assay results: the supplement of paper PMC11451515
# System: P12-Ichikawa
# Experiment: cell viability relative to DMSO control; higher = less cytotoxic
# Details: 48 h
# Outline: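 Viability values are per-plate percentages of DMSO wells, with background from cell-free wells. Library compounds in DMSO were pin-dosed, in an 11-point threefold series from 47 μM to 0.79 nM, onto NOMO1 or SEM (500 cells/well) or P12-Ichikawa (1000 cells/well) leukemia cells in 1536-well plates (5 μl). Those cells had been adapted for at least four passages in each medium, and CellTiter-Glo One luminescence was read after 48 h at 37°C.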
# [1] = HPLM + 10% dialyzed FBS, 0.000781 µM
# [2] = HPLM + 10% dialyzed FBS, 0.00234 µM
# [3] = HPLM + 10% dialyzed FBS, 0.00702 µM
# [4] = HPLM + 10% dialyzed FBS, 0.0211 µM
# [5] = HPLM + 10% dialyzed FBS, 0.0632 µM
# [6] = HPLM + 10% dialyzed FBS, 0.19 µM
# [7] = HPLM + 10% dialyzed FBS, 0.569 µM
# [8] = HPLM + 10% dialyzed FBS, 1.71 µM
# [9] = HPLM + 10% dialyzed FBS, 5.12 µM
# [10] = HPLM + 10% dialyzed FBS, 15.4 µM
# [11] = HPLM + 10% dialyzed FBS, 46.1 µM
# [12] = RPMI 5 mM glucose + 10% FBS, 0.000781 µM
# [13] = RPMI 5 mM glucose + 10% FBS, 0.00234 µM
# [14] = RPMI 5 mM glucose + 10% FBS, 0.00702 µM
# [15] = RPMI 5 mM glucose + 10% FBS, 0.0211 µM
# [16] = RPMI 5 mM glucose + 10% FBS, 0.0632 µM
# [17] = RPMI 5 mM glucose + 10% FBS, 0.19 µM
# [18] = RPMI 5 mM glucose + 10% FBS, 0.569 µM
# [19] = RPMI 5 mM glucose + 10% FBS, 1.71 µM
# [20] = RPMI 5 mM glucose + 10% FBS, 5.12 µM
# [21] = RPMI 5 mM glucose + 10% FBS, 15.4 µM
# [22] = RPMI 5 mM glucose + 10% FBS, 46.1 µM
# [23] = RPMI 5 mM glucose + 10% dialyzed FBS, 0.000781 µM
# [24] = RPMI 5 mM glucose + 10% dialyzed FBS, 0.00234 µM
# [25] = RPMI 5 mM glucose + 10% dialyzed FBS, 0.00702 µM
# [26] = RPMI 5 mM glucose + 10% dialyzed FBS, 0.0211 µM
# [27] = RPMI 5 mM glucose + 10% dialyzed FBS, 0.0632 µM
# [28] = RPMI 5 mM glucose + 10% dialyzed FBS, 0.19 µM
# [29] = RPMI 5 mM glucose + 10% dialyzed FBS, 0.569 µM
# [30] = RPMI 5 mM glucose + 10% dialyzed FBS, 1.71 µM
# [31] = RPMI 5 mM glucose + 10% dialyzed FBS, 5.12 µM
# [32] = RPMI 5 mM glucose + 10% dialyzed FBS, 15.4 µM
# [33] = RPMI 5 mM glucose + 10% dialyzed FBS, 46.1 µM
SMILES,cell viability [1],cell viability [2],cell viability [3],cell viability [4],cell viability [5],cell viability [6],cell viability [7],cell viability [8],cell viability [9],cell viability [10],cell viability [11],cell viability [12],cell viability [13],cell viability [14],cell viability [15],cell viability [16],cell viability [17],cell viability [18],cell viability [19],cell viability [20],cell viability [21],cell viability [22],cell viability [23],cell viability [24],cell viability [25],cell viability [26],cell viability [27],cell viability [28],cell viability [29],cell viability [30],cell viability [31],cell viability [32],cell viability [33]
C[S+](=O)([O-])N1CCc2c(-c3cnc(N)nc3)nc(N3CCOCC3)nc21,110%,115%,110%,120%,111%,119%,115%,93.6%,104%,107%,98.5%,105%,97.8%,114%,106%,102%,108%,103%,73%,84.8%,79.6%,71.8%,98.2%,116%,110%,119%,112%,115%,107%,85.6%,103%,85.4%,78.5%
CN1CCCN=C1/C=C/c1cccs1.O=C(O)c1cc2ccccc2c(Cc2c(O)c(C(=O)O)cc3ccccc23)c1O,114%,117%,118%,122%,112%,111%,111%,111%,103%,25%,10.2%,109%,121%,114%,122%,114%,114%,105%,114%,110%,115%,101%,114%,123%,115%,115%,120%,115%,108%,112%,114%,98.2%,82.9%
C[C@@H]\1CC(=O)N\N=C1C2=CC=C(NN=C(C#N)C#N)C=C2,91.5%,92.9%,94.3%,94.4%,95.7%,92.8%,93.5%,87.5%,91.3%,86.3%,29.4%,88.1%,93.2%,92.2%,89.5%,93.9%,92.4%,96.7%,91.1%,93.4%,81.1%,15.6%,81.2%,85.7%,88.2%,92.3%,92.3%,90.9%,91.3%,80.1%,83.7%,72.9%,12.8%
O=C1c2c(O)ccc(O)c2C(=O)c2c(NCCNCCO)ccc(NCCNCCO)c21,101%,105%,108%,110%,104%,99.7%,6.68%,36.9%,8.95%,7%,5.91%,96%,101%,96.7%,124%,107%,94.3%,4.89%,32.4%,5.93%,5.48%,5.03%,97.5%,96%,98%,106%,106%,102%,8.07%,45.4%,9.1%,7.62%,9.05%
C#C[C@]1(O)CC[C@H]2[C@@H]3CCc4cc(O)ccc4[C@H]3CC[C@@]21C,102%,98.3%,95.9%,97.4%,95.7%,102%,89.5%,97.3%,95.8%,75.3%,47.2%,98.3%,95.6%,89.4%,93.6%,92.3%,94.3%,96.7%,83.7%,89.1%,67.7%,42.6%,87.5%,86.7%,88.9%,92.3%,93.3%,92.4%,95.6%,85.6%,81.8%,72.5%,58.3%
C=CC(=O)N1CCC[C@@H](n2nc(-c3ccc(Oc4ccccc4)cc3)c3c(N)ncnc32)C1,127%,123%,120%,121%,114%,112%,111%,91.8%,80.7%,76.3%,80.5%,–,–,–,–,–,–,–,–,–,–,–,–,–,–,–,–,–,–,–,–,–,–
CC(C)CC(=O)N[C@H](C(=O)N[C@H](C(=O)N[C@@H](CC(C)C)[C@@H](O)CC(=O)N[C@@H](C)C(=O)N[C@@H](CC(C)C)[C@@H](O)CC(=O)O)C(C)C)C(C)C,103%,103%,107%,108%,105%,114%,118%,116%,105%,111%,97.9%,108%,109%,121%,109%,97.6%,113%,105%,113%,122%,103%,108%,98.1%,99.7%,106%,102%,96.6%,103%,107%,111%,102%,97.6%,96%
COc1ncc(-c2ccc3nccc(-c4ccnnc4)c3c2)cc1N[S+](=O)([O-])c1ccc(F)cc1F,118%,115%,115%,106%,101%,95.6%,95.3%,74.8%,35.8%,17%,11.3%,139%,111%,91.1%,91.4%,83.3%,77%,69.9%,55.9%,40%,17.5%,8.78%,131%,113%,101%,97.3%,89%,90.3%,80.5%,61.3%,47.5%,13.6%,9.07%
O=C(O[C@H]1C[C@H]2CC[C@@H](C1)[N+]21CCCC1)C(O)(c1ccccc1)c1ccccc1.[Cl-],104%,104%,112%,106%,117%,105%,110%,116%,107%,116%,110%,107%,104%,113%,116%,120%,127%,127%,106%,113%,115%,115%,99.5%,99.9%,105%,106%,117%,110%,104%,113%,107%,103%,103%
N=C(NCCCCCCNC(=N)NC(=N)Nc1ccc(Cl)cc1)NC(=N)Nc1ccc(Cl)cc1,89.4%,95.2%,93%,95.7%,92.6%,93.3%,95.2%,101%,92.9%,97.9%,93.8%,83.8%,82.8%,92.1%,90.1%,93.6%,97.6%,91.4%,80.2%,95.1%,81.2%,56.3%,85.4%,85.3%,90.4%,86.9%,94.1%,95.5%,87.5%,88.1%,86%,89.3%,70.3%
O=C(O)c1ccc2c(c1)nc(Nc1cccc(Cl)c1)c1ccncc12,106%,112%,104%,104%,108%,109%,104%,104%,94.8%,71.8%,83.4%,112%,111%,108%,98.4%,108%,108%,105%,100%,84.4%,58.9%,70.2%,99.4%,94.2%,93.8%,97.4%,100%,95.9%,94.5%,101%,77.8%,51.4%,73%
CN(C)[C@H]\1[C@@H]2C[C@H]3C(=C(O)\[C@]2(O)C(=O)\C(=C1O)C(N)=O)/C(=O)C4=C(O)C=CC=C4[C@@]3(C)O,113%,115%,114%,115%,113%,116%,114%,111%,114%,108%,93.9%,112%,103%,109%,116%,118%,110%,114%,107%,115%,92.8%,98.8%,114%,101%,114%,111%,116%,116%,111%,104%,105%,97.5%,97%
C=C[C@H]1CN2CC[C@H]1C[C@H]2[C@H](O)c1ccnc2ccc(OC)cc12,100%,98.6%,93.6%,104%,96.3%,100%,104%,105%,108%,110%,100%,95.9%,104%,99.4%,95.7%,93.6%,101%,106%,109%,129%,111%,75.4%,89.9%,89%,91.7%,93.1%,96.3%,96.7%,94.1%,95.3%,102%,101%,81%
C/C=C1\C2C=C(C)CC1(N)c1ccc(=O)[nH]c1C2 (stereo not given),102%,108%,107%,107%,109%,109%,107%,104%,96.3%,106%,79.2%,105%,110%,112%,106%,113%,101%,98.3%,91.2%,98.9%,98.7%,92.8%,110%,98%,108%,102%,94.9%,107%,98.4%,97.1%,88.5%,95.2%,90.9%
